# Measurements taken from paper PMC8068036, “Synthesis of New Biscoumarin Derivatives, In Vitro Cholinesterase Inhibition, Molecular Modelling and Antiproliferative Effect in A549 Human Lung Carcinoma Cells” (International Journal of Molecular Sciences, 2021).
# Assays:
# hBChE (human plasma) = molecular target: T1, hBChE (human plasma) (Homo sapiens, UniProt P06276); test: biochemical; type: biochemical; conditions: human plasma BChE, mean of at least three experiments
# T1 construct: Human plasma was used as a source of BChE; from tissue; host or cells: human plasma from heparinized blood
# T1 sequence (P06276 29-602): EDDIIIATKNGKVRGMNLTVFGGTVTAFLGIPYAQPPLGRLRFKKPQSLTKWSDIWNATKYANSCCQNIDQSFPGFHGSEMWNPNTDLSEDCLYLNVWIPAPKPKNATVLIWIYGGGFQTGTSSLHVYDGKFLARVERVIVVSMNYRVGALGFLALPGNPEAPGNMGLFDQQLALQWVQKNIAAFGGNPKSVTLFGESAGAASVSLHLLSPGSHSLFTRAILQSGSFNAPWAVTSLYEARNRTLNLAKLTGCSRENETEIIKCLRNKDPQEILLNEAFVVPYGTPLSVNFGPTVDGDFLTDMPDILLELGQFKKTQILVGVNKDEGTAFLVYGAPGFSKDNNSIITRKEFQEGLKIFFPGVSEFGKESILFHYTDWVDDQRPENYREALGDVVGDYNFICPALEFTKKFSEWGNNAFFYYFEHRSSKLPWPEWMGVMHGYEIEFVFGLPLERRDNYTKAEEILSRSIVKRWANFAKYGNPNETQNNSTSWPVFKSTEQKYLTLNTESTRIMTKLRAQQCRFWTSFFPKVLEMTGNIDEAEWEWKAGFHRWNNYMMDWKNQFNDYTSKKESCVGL
# Experimental: (§1) Human recombinant AChE (EC 3.1.1.7), 5,5′-dithiobis(2-nitrobenzoic acid) (Ellman′s reagent, DTNB), phosphate buffer (PB, 0.1 M, pH 7.4), and acetylthiocholine (ATC) and butyrylthiocholine (BTC), were purchased from Sigma-Aldrich, Prague, Czech Republic. Human plasma was used as a source of BChE and was prepared from heparinized human blood. The blood was centrifuged for 20 min (4 °C, 2300× g) on a Hettich Universal 320R centrifuge. The plasma was separated and stored at […]. Polystyrene Nunc 96-well microplates with a flat bottom shape (ThermoFisher Scientific, Waltham, MA, USA) were used for measuring purposes.
# (§2) All of the assays were carried out in a 0.1 M phosphate buffer, pH 7.4. The assay medium (100 µL) consisted of 40 µL of 0.1 M phosphate buffer (pH 7.4), 20 µL of 0.01 M DTNB, 10 µL of the enzyme, and 20 µL of 0.01 M substrate ATC/BTC iodide solution).
# (§3) The tested compounds were preincubated for 5 min prior to use. The reaction was initiated immediately upon addition of 20 µL of the substrate. […] Each concentration was assayed in triplicate. Software GraphPad Prism 5 (San Diego, CA, USA) was used in the evaluation of the statistical data.
# human recombinant AChE = molecular target: T2, human recombinant AChE (Homo sapiens, UniProt P22303); test: biochemical; type: biochemical; conditions: mean of at least three experiments
# T2 construct: purchased Sigma-Aldrich, Prague, Czech Republic
# T2 sequence (P22303 32-614): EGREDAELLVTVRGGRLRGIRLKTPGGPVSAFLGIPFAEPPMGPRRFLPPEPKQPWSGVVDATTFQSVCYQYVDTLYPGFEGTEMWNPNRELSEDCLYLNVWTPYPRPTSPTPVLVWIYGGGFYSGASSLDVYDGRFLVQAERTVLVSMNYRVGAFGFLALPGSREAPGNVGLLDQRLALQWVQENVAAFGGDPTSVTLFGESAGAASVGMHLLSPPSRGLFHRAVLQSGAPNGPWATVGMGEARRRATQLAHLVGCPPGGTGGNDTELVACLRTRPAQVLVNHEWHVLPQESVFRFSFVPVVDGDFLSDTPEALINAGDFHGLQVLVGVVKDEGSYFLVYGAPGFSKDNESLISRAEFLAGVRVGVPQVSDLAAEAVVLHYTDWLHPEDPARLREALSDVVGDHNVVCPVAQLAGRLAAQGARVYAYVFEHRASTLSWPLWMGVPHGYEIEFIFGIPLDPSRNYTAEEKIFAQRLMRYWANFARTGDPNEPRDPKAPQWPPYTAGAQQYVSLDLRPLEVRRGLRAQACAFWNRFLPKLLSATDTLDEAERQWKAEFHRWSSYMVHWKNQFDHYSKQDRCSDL
# Experimental: as §1, §2, §3
structure (smiles),measurement,setting,value
"COC(=O)Cc1cc(=O)oc2cc(OCCCCCCCCN3CCN(CCNC(=O)Cc4cc(=O)oc5cc(O)ccc45)CC3)ccc12 [12e, Methyl 2-[7-({2-[4-(2-{[2-(7-hydroxy-2-oxo-2H-4-chromenyl)acetyl]amino}etyl)piperazino]oktyl}oxy)-2-oxo-2H-4-chromenyl]acetate]",IC50 ± S.E.M. hBChE,hBChE (human plasma),did not show inhibitory activity
same,IC50,hBChE (human plasma); read-out: IC50 ± S.E.M. hBChE,> 500 µM
same,IC50 ± S.E.M. hAChE,human recombinant AChE,did not show inhibitory activity
same,IC50,human recombinant AChE; read-out: IC50 ± S.E.M. hAChE,> 500 µM
